Some test systems named below: SF-295; COLO 205; SNB-19; HOP-92; SK-OV-3; NCI-H23; 786-0; SNB-75; T47D; PC-3; RPMI-8226; OVCAR-3; SR; TK-10; HCT-15; RXF 393; UACC-62; SN12C; Malme-3M; HL-60.
Common to all, as to test: NCI tumour cell line growth inhibition, 48 h

The source of these data is ChEMBL document CHEMBL1201862, “PubChem BioAssay data set” (2004).

Structures can show the parent of a compound that is named as a salt.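 Following 48 hours of exposure in 96-well plates, responses at five concentrations were used to interpolate endpoints linearly. At the GI50, growth is halved.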 Activity calls are given as the source filed them. Cut-off read from the data, not from the text of the source: active = GI50 up to about 1.1 µM and inactive = higher. Residues, ends and D or L forms follow the SMILES beside them. *: point of attachment. Tfa = O=C(C(F)(F)F)*

With `CC(=O)Oc1cc2c(cc1OC(C)=O)[C@H]1CC[C@]3(C)[C@@H](OC(C)=O)CC[C@H]3[C@@H]1CC2`, the GI50 in the assay with SF-295 was 4.49 µM (inactive); in the assay with COLO 205, 3.43 µM (inactive); in the assay with SNB-19 it was 6.65 µM (inactive); in the assay with HOP-92 it was 1.1 µM (active); with SK-OV-3 it was 6.38 µM (inactive); in the assay with NCI-H23, 10.2 µM (inactive). Moreover, the GI50 in the assay on 786-0 was 4.78 µM (inactive); with SNB-75, 0.162 µM (active); with T47D, 7.26 µM (inactive); with PC-3, 9.29 µM (inactive); with RPMI-8226, 1.92 µM (inactive); with OVCAR-3, 2.21 µM (inactive). Also, the GI50 in the assay on SR is 0.45 µM (active); in the assay with TK-10, 8.28 µM (inactive); in the assay with HCT-15 it was 1.48 µM; with RXF 393, 4.5 µM (inactive).
Consider `CC(C)Cc1cnc(CC(C)C)c(=O)[nH]1`, for which the GI50 with SF-295, in the assay on COLO 205, with SNB-19, in the assay with HOP-92, with SK-OV-3 and in the assay on NCI-H23 was > 100 µM (inactive) in each case. The GI50 in the assay with 786-0 is > 100 µM (inactive); in the assay with SNB-75, > 100 µM (inactive); with T47D, > 100 µM (inactive); in the assay on UACC-62, > 100 µM (inactive); in the assay with PC-3, > 100 µM (inactive); in the assay on RPMI-8226, 0.705 µM (active). Also, the GI50 with OVCAR-3 was > 100 µM (inactive); in the assay on SN12C it was > 100 µM (inactive); with SR, > 100 µM (inactive); in the assay with TK-10, > 100 µM (inactive); with HCT-15, > 100 µM; with RXF 393, > 100 µM (inactive).
`Cn1c2c(c3ccccc31)CC(=O)N1CCCCC1C21OCCO1` (centres undefined): the GI50 with Malme-3M, with SF-295, in the assay on COLO 205, with SNB-19, in the assay with HOP-92 and with SK-OV-3 was > 100 µM (inactive) throughout. The GI50 with NCI-H23, with 786-0, in the assay with SNB-75, with T47D, in the assay with UACC-62 and in the assay on PC-3 was > 100 µM (inactive) in each case. For the same compound, the GI50 in the assay on RPMI-8226 is > 100 µM (inactive); in the assay with OVCAR-3, > 100 µM (inactive); with SN12C, > 100 µM (inactive); with SR it was > 100 µM (inactive); in the assay on TK-10 it was > 100 µM (inactive); in the assay with HCT-15 it was > 100 µM. In the assay with RXF 393, the GI50 was > 100 µM (inactive).
For the compound `Clc1ccc(CCN(CCc2ccc(Cl)c(Cl)c2)CCN2CCCC2)cc1Cl`, the GI50 in the assay with Malme-3M was 1.78 µM (inactive); in the assay with SF-295, 1.78 µM (inactive); in the assay with COLO 205, 1.89 µM (inactive); in the assay with SNB-19, 1.82 µM (inactive); with SK-OV-3 it was 1.78 µM (inactive); in the assay on NCI-H23, 1.82 µM (inactive). Also, the GI50 was 1.76 µM (inactive) with 786-0; 1.39 µM (inactive) in the assay with HL-60; 2.23 µM (inactive) with SNB-75; 3.27 µM (inactive) with T47D; 1.63 µM (inactive) in the assay with UACC-62; 1.57 µM (inactive) in the assay with PC-3. Moreover, the GI50 in the assay with RPMI-8226 is 2.16 µM (inactive); in the assay with OVCAR-3, 1.73 µM (inactive); in the assay on SN12C, 1.87 µM (inactive); in the assay on SR, 2.01 µM (inactive); with TK-10, 1.78 µM (inactive); in the assay with HCT-15 it was 1.79 µM. Moreover, in the assay on RXF 393, the GI50 was 1.72 µM (inactive).
Turning to `CN(CCCNC(=O)c1cn(C)c2c1ccc1cc(Cl)c(Cl)cc12)CCCNC(=O)c1cn(C)c2c1ccc1cc(Cl)c(Cl)cc12`, the GI50 was 17.1 µM (inactive) in the assay on Malme-3M; 17.1 µM (inactive) in the assay on SF-295; 3.18 µM (inactive) with COLO 205; 7 µM (inactive) in the assay on SNB-19; 11.6 µM (inactive) with HOP-92; 15.2 µM (inactive) in the assay on SK-OV-3. For the same compound, the GI50 is 14.6 µM (inactive) in the assay with NCI-H23; 6.27 µM (inactive) in the assay with 786-0; 2.47 µM (inactive) in the assay with HL-60; 10.8 µM (inactive) in the assay on SNB-75; 13.7 µM (inactive) in the assay on T47D; 16.1 µM (inactive) with UACC-62. Moreover, the GI50 in the assay on PC-3 is 13.3 µM (inactive); with OVCAR-3, 18.2 µM (inactive); with SN12C, 13.6 µM (inactive); with SR it was 4.57 µM (inactive); in the assay on TK-10 it was 17.5 µM (inactive); in the assay with HCT-15 it was 11.9 µM. The GI50 in the assay with RXF 393 was 4.42 µM (inactive).
In the case of `ON[C@@H]1C=C[C@H](n2cnc3c(NC4CC4)ncnc32)C1`, the GI50 in the assay with Malme-3M, in the assay on SF-295, with COLO 205, in the assay on SNB-19, in the assay with HOP-92 and with SK-OV-3 was > 100 µM (inactive) in each case. Besides, the GI50 in the assay with NCI-H23, in the assay on 786-0, with SNB-75, in the assay on T47D, in the assay with UACC-62 and with PC-3 was > 100 µM (inactive) in each case. In addition, the GI50 in the assay with RPMI-8226 is > 100 µM (inactive); in the assay with OVCAR-3, > 100 µM (inactive); in the assay on SN12C it was > 100 µM (inactive); with SR, 88.3 µM (inactive); with TK-10 it was > 100 µM (inactive); in the assay with HCT-15, > 100 µM. Besides, the GI50 in the assay on RXF 393 is > 100 µM (inactive).
For `COc1ccccc1C1CC(=O)CC(c2ccccc2OC)C12C(=O)NC(=S)NC2=O` (centres undefined), the GI50 in the assay with Malme-3M is 79.6 µM (inactive); with SF-295, > 100 µM (inactive); in the assay with COLO 205, 32.6 µM (inactive); in the assay on SNB-19 it was > 100 µM (inactive); in the assay with HOP-92 it was 43.3 µM (inactive); with NCI-H23, > 100 µM (inactive). For the same compound, the GI50 is > 100 µM (inactive) in the assay on 786-0; 9.93 µM (inactive) in the assay with HL-60; 56 µM (inactive) in the assay on SNB-75; 58.5 µM (inactive) in the assay on T47D; > 100 µM (inactive) in the assay on UACC-62; 90.6 µM (inactive) with PC-3. Also, the GI50 in the assay on RPMI-8226 was 19.9 µM (inactive); with OVCAR-3, 80.2 µM (inactive); with SN12C it was 65.8 µM (inactive); with SR, 53.7 µM (inactive); in the assay on TK-10, > 100 µM (inactive); in the assay on HCT-15, 42.5 µM. For the same compound, in the assay with RXF 393, the GI50 was 59.4 µM (inactive).
In the case of `CCOC(=O)C(O)Cc1cnc2ccccc2n1` (centres undefined), the GI50 in the assay on Malme-3M, in the assay with COLO 205, with SNB-19, with HOP-92, with SK-OV-3 and with NCI-H23 was > 100 µM (inactive) each time. Also, the GI50 with 786-0, in the assay on SNB-75, in the assay with T47D, in the assay with UACC-62, in the assay with PC-3 and in the assay on RPMI-8226 was > 100 µM (inactive) in each case. The GI50 with OVCAR-3 is > 100 µM (inactive); in the assay with SN12C it was > 100 µM (inactive); in the assay with SR, > 100 µM (inactive); with TK-10, > 100 µM (inactive); in the assay with HCT-15, > 100 µM; in the assay on RXF 393, > 100 µM (inactive).
As for `NC(=O)N/N=C1/c2ccccc2-n2nccc21`, the GI50 in the assay on Malme-3M is > 100 µM (inactive); with SF-295, > 100 µM (inactive); with COLO 205, 67.1 µM (inactive); in the assay with SNB-19 it was > 100 µM (inactive); with HOP-92, 64.7 µM (inactive); in the assay with SK-OV-3 it was > 100 µM (inactive). Further, the GI50 with NCI-H23 is > 100 µM (inactive); with 786-0, 76.6 µM (inactive); with HL-60 it was 8.59 µM (inactive); with SNB-75, 28.8 µM (inactive); with T47D, 27.4 µM (inactive); with UACC-62, 48.6 µM (inactive). Besides, the GI50 with PC-3 was > 100 µM (inactive); with OVCAR-3 it was 40.7 µM (inactive); in the assay on SN12C, 89.9 µM (inactive); with SR it was 39 µM (inactive); with TK-10, > 100 µM (inactive); with HCT-15 it was 55.7 µM. Moreover, the GI50 in the assay with RXF 393 is 25.9 µM (inactive).
Consider `CC1(C)O[C@@H]2COC(=O)[C@@H]2O1`, for which the GI50 with Malme-3M, in the assay with SF-295, with COLO 205, with SNB-19, with HOP-92 and in the assay on SK-OV-3 was > 100 µM (inactive) in each case. Besides, the GI50 in the assay on NCI-H23, with 786-0, in the assay on HL-60, in the assay on SNB-75, in the assay on T47D and with UACC-62 was > 100 µM (inactive) in each case. Also, the GI50 is > 100 µM (inactive) with PC-3; > 100 µM (inactive) in the assay on OVCAR-3; > 100 µM (inactive) in the assay on SN12C; > 100 µM (inactive) in the assay with SR; > 100 µM (inactive) in the assay on TK-10; > 100 µM in the assay on HCT-15. For the same compound, the GI50 with RXF 393 is > 100 µM (inactive).
Take `O=C(O)CC(NC(=O)C(F)(F)F)C(=O)NC(Cc1ccc(O)cc1)C(=O)O` (stereo not drawn) (Tfa-Asp-Tyr-OH; configuration not given here): the GI50 in the assay on Malme-3M, in the assay on SF-295, in the assay with COLO 205, in the assay on SNB-19, in the assay with HOP-92 and in the assay on SK-OV-3 was > 50 µM (inactive) in each case. Besides, the GI50 in the assay on NCI-H23, in the assay on 786-0, in the assay on SNB-75, with T47D, in the assay with UACC-62 and with PC-3 was > 50 µM (inactive) throughout. The GI50 in the assay with RPMI-8226 is > 50 µM (inactive); in the assay with OVCAR-3 it was > 50 µM (inactive); with SN12C, > 50 µM (inactive); in the assay with SR, > 50 µM (inactive); in the assay on TK-10 it was > 50 µM (inactive); in the assay on HCT-15, > 50 µM. The GI50 with RXF 393 was > 50 µM (inactive).
